Reference: article PMC5674860, “A novel, highly efficient β-glucosidase with a cellulose-binding domain: characterization and properties of native and recombinant proteins” (Biotechnology for Biofuels, 2017)

Tests used:
Format in all cases: biochemical
BGL-2T* [1] = biological target: T1, BGL-2T* (Talaromyces amestolkiae, UniProt A0A186NAE7); assay: p-nitrophenol release at […] nm, Lineweaver-Burk; conditions: acetate buffer, optimal pH (3-4) and temperature (70 °C), BSA; read-out: K m (mM) / BGL-2T*
T1 construct: gene bgl2; recombinant truncated form lacking linker and CBD; stop codon in retained third intron; pPIC9, Pichia pastoris KM71, secreted; monomer
T1 sequence (A0A186NAE7 1-700 limits assumed): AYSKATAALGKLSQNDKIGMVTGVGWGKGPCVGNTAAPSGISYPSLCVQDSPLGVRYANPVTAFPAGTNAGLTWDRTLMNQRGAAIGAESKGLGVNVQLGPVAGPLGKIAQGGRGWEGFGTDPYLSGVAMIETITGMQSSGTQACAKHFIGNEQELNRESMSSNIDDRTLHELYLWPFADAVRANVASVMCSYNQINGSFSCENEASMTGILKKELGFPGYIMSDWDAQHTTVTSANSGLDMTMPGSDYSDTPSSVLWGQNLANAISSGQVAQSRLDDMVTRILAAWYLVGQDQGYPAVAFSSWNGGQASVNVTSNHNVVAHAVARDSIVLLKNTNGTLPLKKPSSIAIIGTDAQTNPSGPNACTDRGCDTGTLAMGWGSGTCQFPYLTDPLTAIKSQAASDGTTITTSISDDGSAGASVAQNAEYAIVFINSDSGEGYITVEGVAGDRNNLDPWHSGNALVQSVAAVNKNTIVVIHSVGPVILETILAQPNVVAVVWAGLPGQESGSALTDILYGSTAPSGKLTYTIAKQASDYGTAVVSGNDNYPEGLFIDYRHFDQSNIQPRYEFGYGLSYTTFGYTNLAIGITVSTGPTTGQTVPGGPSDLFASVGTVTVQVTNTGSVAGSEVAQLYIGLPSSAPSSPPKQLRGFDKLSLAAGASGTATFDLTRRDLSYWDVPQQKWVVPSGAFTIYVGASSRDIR

BGL-2T* [2] = biological target: T1, BGL-2T*; assay: glucose release (Glucose-TR kit), Lineweaver-Burk; conditions: 100 mM sodium acetate pH 4, optimal temperature (70 °C), BSA; read-out: K m (mM) / BGL-2T*
Description: glucose release (Glucose-TR kit), Lineweaver-Burk on BGL-2T*

BGL-2T* [3] = biological target: T1, BGL-2T*; assay: o-nitrophenol release, Lineweaver-Burk; conditions: acetate buffer, optimal pH (3-4) and temperature (70 °C), BSA; read-out: K m (mM) / BGL-2T*
Description: o-nitrophenol release, Lineweaver-Burk on BGL-2T*

Compound	Km (BGL-2T* [2]) [mM]	other results
O=[N+]([O-])c1ccc(O[C@@H]2O[C@H](CO)[C@@H](O)[C@H](O)[C@H]2O)cc1 [pNPG, p-nitrophenyl-β-D-glucopyranoside]		Km (BGL-2T* [1]): 0.34 ± 0.02 mM
OC[C@H]1O[C@@H](O[C@H]2[C@H](O)[C@@H](O)[C@H](O[C@H]3[C@H](O)[C@@H](O)[C@H](O[C@H]4[C@H](O)[C@@H](O)[C@H](O[C@H]5[C@H](O)[C@@H](O)C(O)O[C@@H]5CO)O[C@@H]4CO)O[C@@H]3CO)O[C@@H]2CO)[C@H](O)[C@@H](O)[C@@H]1O (some centres unmarked) [Cellopentaose]	0.68 ± 0.01	
O=[N+]([O-])c1ccccc1O[C@@H]1O[C@H](CO)[C@@H](O)[C@H](O)[C@H]1O [oNPG, o-nitrophenyl-β-D-glucopyranoside]		Km (BGL-2T* [3]): 0.67 ± 0.04 mM

Continued, in another order:

Km (BGL-2T* [2]) [mM]	Compound	other results
0.49 ± 0.03	OC[C@H]1O[C@@H](O[C@H]2[C@H](O)[C@@H](O)[C@H](O[C@H]3[C@H](O)[C@@H](O)[C@H](O[C@H]4[C@H](O)[C@@H](O)C(O)O[C@@H]4CO)O[C@@H]3CO)O[C@@H]2CO)[C@H](O)[C@@H](O)[C@@H]1O (some centres unmarked) [Cellotetraose]	
1.42 ± 0.06	OC[C@H]1O[C@@H](O[C@H]2[C@H](O)[C@@H](O)[C@H](O[C@H]3[C@H](O)[C@@H](O)C(O)O[C@@H]3CO)O[C@@H]2CO)[C@H](O)[C@@H](O)[C@@H]1O (some centres unmarked) [Cellotriose]	
